Test results from ChEMBL document CHEMBL5465560, “Selectivity Literature for EUbOPEN Chemogenomic Library” (2024).

Experiments:
[1] = target: Microtubule-associated serine/threonine-protein kinase 3 (Homo sapiens) (UniProt O60307); assay: Selectivity interaction (Kinase panel (KiNativ target engagement assay in Jurkat cells)) EUB0001635a MAST3; type: cell-based; conditions: Selectivity number of off-targets 0.0, Selectivity number of targets 233.0, Source Knowledge https://www.sciencedirect.com/science/article/pii/S2451945619300674?via%3Dihub, at 1 µM
[2] = target: Calcium/calmodulin-dependent protein kinase type II subunit delta (Homo sapiens) (UniProt Q13557); assay: Selectivity interaction (KinomeScan (DiscoverX)) EUB0000229b CAMK2D; conditions: at 10 µM
[3] = target: Mitogen-activated protein kinase 3 (Homo sapiens, UniProt P27361); assay: Selectivity interaction (KinomeScan (DiscoverX)) EUB0000229b MAPK3; conditions: at 10 µM
[4] = target: Tyrosine-protein kinase BTK (Homo sapiens, UniProt Q06187); assay: Selectivity interaction (KinomeScan (DiscoverX)) EUB0000595a BTK; conditions: at 10 µM
[5] = target: Histone-lysine N-methyltransferase, H3 lysine-79 specific (Homo sapiens, UniProt Q8TEK3); conditions: at 10 µM
[6] = target: 5-hydroxytryptamine receptor 1B (Homo sapiens) (UniProt P28222); assay: Selectivity interaction (GPCR panel (PDSP screen)) EUB0001079a HTR1B; conditions: at 10 µM
[7] = target: Fibroblast growth factor receptor 1 (Homo sapiens, UniProt P11362); assay: Selectivity interaction (Kinase panel (Z-LYTE Assay)) EUB0001632a FGFR1; conditions: at 10 µM
[8] = target: Serine/threonine-protein kinase MARK1 (Homo sapiens) (UniProt Q9P0L2); assay: Selectivity interaction (KinomeScan (DiscoverX)) EUB0000666a MARK1; conditions: at 10 µM
[9] = target: T1, Testis-specific serine/threonine-protein kinase 1 (Homo sapiens) (UniProt Q9BXA7); assay: Selectivity interaction (KinomeScan (DiscoverX)) EUB0000666a TSSK1A; conditions: at 10 µM
T1 sequence (whole entry): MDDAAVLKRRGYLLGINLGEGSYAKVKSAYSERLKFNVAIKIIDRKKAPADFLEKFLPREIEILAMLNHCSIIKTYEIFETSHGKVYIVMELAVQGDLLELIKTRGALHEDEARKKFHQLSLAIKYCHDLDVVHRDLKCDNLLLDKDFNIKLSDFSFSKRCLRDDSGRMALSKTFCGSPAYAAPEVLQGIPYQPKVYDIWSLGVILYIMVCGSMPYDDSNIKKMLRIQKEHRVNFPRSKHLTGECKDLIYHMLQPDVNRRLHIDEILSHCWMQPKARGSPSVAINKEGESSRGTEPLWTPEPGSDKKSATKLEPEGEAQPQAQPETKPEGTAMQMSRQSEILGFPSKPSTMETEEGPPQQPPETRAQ

[10] = target: DNA (cytosine-5)-methyltransferase 3A (Homo sapiens) (UniProt Q9Y6K1); assay: Selectivity interaction (PWWP, WD40, and Tudor domain panel (DSLS measurements, literature)) EUB0000270b DNMT3A
[11] = system: Tyrosine-protein kinase ABL1 (Homo sapiens), P00519 [Y253F]; conditions: at 10 µM
[12] = system: Hepatocyte growth factor receptor (Homo sapiens), P08581 [M1250T]; conditions: at 10 µM
[13] = target: T2, Serine/threonine-protein kinase ULK2 (Homo sapiens) (UniProt Q8IYT8); conditions: at 10 µM
T2 sequence (whole entry): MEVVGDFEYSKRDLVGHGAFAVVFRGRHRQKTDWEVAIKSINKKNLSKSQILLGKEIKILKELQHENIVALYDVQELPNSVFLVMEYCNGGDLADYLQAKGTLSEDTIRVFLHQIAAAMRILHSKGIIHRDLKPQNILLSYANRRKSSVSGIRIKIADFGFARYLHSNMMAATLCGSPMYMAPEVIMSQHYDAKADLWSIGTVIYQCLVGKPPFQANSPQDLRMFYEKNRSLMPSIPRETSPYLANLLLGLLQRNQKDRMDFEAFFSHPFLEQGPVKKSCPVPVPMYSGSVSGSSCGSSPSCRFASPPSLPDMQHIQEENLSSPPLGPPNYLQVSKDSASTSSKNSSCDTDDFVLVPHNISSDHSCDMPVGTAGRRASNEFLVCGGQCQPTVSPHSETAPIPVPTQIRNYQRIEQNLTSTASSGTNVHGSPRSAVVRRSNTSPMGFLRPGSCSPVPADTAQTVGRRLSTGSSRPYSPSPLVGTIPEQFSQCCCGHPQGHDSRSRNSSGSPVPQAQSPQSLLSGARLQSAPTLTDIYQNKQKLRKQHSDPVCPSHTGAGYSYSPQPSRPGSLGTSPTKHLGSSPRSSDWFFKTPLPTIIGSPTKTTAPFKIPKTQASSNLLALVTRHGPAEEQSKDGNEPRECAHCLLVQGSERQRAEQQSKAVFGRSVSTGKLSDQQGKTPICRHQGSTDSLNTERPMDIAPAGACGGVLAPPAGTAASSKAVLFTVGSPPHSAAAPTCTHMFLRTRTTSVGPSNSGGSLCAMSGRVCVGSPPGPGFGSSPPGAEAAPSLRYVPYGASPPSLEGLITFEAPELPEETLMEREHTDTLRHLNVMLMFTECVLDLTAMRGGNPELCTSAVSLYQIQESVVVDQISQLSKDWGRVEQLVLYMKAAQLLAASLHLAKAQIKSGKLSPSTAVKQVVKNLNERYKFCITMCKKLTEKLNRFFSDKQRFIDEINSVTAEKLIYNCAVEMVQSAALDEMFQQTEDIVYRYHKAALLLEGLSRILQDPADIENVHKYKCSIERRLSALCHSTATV

[14] = target: Glycogen synthase kinase-3 beta (Homo sapiens, UniProt P49841)
[15] = target: Cannabinoid receptor 2 (Homo sapiens) (UniProt P34972); assay: Selectivity interaction (Panel of kinases, GPCRs, ion channels and transporters (enzymatic assay)) EUB0000223bCl CNR2
[16] = target: Dual specificity tyrosine-phosphorylation-regulated kinase 1A (Homo sapiens, UniProt Q13627); assay: Selectivity interaction (KinomeScan (DiscoverX)) EUB0001619a DYRK1A; conditions: at 1 µM
[17] = target: Macrophage-stimulating protein receptor (Homo sapiens, UniProt Q04912); assay: Selectivity interaction (SelectScreen profiling (Invitrogen)) EUB0000607a MST1R; conditions: at 2 µM
[18] = target: Tyrosine-protein kinase Lyn (Homo sapiens, UniProt P07948); assay: Selectivity interaction (KinomeScan (DiscoverX)) EUB0000618a LYN; conditions: at 10 µM
[19] = target: Mitogen-activated protein kinase 14 (Homo sapiens, UniProt Q16539); assay: Selectivity interaction (ActivX KiNativ screen (kinase selectivity in THP-1 cell lysates)) EUB0000639a MAPK14; type: subcellular; conditions: lysate, at 1 µM
[20] = target: Serine/threonine-protein kinase WNK2 (Homo sapiens) (UniProt Q9Y3S1); assay: Selectivity interaction (ActivX KiNativ screen (kinase selectivity in THP-1 cell lysates)) EUB0000639a WNK2; type: subcellular; conditions: lysate, at 5 µM

Sequence of Cannabinoid receptor 2 (Homo sapiens) (P34972 whole entry): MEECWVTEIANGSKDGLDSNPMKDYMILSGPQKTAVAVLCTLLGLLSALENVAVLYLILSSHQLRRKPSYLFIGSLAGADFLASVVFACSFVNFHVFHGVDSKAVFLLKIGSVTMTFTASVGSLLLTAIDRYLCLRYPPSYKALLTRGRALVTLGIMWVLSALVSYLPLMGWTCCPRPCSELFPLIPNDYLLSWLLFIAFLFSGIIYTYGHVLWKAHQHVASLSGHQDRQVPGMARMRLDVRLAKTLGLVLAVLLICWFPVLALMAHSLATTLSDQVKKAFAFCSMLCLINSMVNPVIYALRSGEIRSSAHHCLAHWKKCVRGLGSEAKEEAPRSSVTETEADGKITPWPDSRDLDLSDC
Sequence of Serine/threonine-protein kinase MARK1 (Homo sapiens) (Q9P0L2 whole entry, looked up): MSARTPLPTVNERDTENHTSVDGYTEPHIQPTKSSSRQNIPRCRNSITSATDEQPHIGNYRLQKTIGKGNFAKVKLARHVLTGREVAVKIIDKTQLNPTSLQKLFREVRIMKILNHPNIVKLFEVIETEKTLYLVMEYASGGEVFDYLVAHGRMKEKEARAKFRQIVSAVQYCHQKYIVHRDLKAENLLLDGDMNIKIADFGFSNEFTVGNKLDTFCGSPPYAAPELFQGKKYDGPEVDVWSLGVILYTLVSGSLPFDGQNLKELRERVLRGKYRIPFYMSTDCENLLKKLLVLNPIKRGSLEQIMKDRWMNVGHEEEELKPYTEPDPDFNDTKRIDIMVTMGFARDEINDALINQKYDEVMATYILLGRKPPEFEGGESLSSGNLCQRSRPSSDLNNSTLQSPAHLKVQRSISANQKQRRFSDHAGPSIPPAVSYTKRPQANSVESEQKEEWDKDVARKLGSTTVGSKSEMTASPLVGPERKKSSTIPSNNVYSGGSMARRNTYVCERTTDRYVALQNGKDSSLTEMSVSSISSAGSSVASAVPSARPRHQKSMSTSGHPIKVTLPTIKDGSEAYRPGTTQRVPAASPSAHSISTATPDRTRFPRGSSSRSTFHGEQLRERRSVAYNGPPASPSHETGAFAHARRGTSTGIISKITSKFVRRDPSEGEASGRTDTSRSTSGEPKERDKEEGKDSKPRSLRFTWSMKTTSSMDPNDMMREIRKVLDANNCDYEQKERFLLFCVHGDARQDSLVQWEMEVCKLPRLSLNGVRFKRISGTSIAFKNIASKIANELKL
Sequence of Glycogen synthase kinase-3 beta (P49841 whole entry): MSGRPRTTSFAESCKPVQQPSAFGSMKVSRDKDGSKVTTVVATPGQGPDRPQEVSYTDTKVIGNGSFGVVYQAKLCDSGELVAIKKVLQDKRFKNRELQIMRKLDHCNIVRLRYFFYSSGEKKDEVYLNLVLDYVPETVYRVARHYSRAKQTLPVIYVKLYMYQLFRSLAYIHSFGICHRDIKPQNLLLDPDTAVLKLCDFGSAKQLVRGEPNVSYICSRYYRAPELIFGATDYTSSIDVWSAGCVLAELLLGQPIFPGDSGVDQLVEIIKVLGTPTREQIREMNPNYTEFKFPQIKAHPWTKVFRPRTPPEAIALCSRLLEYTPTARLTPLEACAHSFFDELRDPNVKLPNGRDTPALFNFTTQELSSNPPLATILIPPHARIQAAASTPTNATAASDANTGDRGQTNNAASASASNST
Sequence of Calcium/calmodulin-dependent protein kinase type II subunit delta (Homo sapiens) (Q13557 whole entry): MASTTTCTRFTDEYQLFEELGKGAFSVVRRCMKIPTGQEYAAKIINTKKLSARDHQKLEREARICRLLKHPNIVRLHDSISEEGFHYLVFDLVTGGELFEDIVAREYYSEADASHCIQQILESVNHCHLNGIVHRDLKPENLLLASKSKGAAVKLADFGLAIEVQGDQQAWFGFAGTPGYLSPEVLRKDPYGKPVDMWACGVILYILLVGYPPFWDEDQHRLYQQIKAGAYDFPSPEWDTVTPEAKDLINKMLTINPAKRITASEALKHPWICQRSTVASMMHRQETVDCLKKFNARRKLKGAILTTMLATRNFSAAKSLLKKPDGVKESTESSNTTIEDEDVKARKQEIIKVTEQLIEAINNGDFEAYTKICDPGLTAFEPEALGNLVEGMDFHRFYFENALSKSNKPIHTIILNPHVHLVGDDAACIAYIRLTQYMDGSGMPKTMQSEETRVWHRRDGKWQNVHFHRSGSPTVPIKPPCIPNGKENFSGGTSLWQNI
Sequence of Fibroblast growth factor receptor 1 (P11362 22-822 limits assumed): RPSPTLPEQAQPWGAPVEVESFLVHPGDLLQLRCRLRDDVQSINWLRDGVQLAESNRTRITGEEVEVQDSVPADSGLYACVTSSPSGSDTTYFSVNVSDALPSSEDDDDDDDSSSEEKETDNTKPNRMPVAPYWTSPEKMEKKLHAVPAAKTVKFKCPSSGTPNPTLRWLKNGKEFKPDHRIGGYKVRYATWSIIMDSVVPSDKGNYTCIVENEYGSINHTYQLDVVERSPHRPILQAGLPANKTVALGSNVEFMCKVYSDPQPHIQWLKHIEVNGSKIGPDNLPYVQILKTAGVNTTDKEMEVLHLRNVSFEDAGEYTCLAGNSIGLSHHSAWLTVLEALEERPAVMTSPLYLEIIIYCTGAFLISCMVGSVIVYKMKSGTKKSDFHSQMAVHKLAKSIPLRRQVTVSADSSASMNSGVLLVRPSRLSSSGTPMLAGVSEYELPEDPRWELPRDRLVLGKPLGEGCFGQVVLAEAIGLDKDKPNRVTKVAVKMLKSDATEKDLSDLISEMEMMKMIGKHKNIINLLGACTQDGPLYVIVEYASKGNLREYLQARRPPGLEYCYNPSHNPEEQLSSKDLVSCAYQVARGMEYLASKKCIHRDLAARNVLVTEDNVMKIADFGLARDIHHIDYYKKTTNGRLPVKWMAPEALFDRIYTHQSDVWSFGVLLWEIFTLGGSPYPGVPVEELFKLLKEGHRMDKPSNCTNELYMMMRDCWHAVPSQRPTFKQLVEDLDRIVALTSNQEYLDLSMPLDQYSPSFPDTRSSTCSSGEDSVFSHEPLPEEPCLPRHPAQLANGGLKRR
Sequence of Mitogen-activated protein kinase 3 (P27361 whole entry): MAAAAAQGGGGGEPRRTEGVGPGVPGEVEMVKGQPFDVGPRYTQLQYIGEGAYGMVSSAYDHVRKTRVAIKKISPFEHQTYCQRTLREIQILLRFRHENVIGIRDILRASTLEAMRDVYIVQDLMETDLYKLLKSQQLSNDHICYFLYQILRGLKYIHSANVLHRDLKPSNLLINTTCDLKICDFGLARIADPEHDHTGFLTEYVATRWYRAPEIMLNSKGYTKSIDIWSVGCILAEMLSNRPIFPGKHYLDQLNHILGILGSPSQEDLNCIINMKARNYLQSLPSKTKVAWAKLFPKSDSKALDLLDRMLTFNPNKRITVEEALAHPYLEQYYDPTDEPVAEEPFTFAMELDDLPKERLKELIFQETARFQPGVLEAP
Sequence of Tyrosine-protein kinase Lyn (P07948 2-512 limits assumed): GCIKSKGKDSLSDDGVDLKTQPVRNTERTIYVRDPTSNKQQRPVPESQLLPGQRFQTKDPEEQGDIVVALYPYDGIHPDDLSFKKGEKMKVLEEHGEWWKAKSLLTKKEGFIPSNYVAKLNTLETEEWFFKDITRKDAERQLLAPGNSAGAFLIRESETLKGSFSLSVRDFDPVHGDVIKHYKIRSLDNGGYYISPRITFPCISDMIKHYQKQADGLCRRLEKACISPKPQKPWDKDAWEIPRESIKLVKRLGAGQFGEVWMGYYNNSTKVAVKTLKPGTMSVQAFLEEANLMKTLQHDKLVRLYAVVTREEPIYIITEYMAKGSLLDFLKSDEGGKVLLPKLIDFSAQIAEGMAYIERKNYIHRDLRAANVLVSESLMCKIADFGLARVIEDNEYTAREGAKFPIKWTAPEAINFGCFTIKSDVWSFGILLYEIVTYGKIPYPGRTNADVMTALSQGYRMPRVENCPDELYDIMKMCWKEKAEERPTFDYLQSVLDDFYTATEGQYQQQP
Sequence of 5-hydroxytryptamine receptor 1B (Homo sapiens) (P28222 whole entry): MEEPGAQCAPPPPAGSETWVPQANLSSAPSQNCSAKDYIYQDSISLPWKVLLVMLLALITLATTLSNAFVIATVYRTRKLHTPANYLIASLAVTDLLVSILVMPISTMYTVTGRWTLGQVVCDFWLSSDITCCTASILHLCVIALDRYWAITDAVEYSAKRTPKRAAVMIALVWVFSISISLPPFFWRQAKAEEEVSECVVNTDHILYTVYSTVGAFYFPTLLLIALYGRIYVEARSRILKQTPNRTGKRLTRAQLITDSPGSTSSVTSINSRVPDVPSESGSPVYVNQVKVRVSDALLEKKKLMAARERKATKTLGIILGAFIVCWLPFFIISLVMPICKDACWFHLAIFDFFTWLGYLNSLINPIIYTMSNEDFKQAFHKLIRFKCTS
Sequence of Tyrosine-protein kinase BTK (Q06187 whole entry): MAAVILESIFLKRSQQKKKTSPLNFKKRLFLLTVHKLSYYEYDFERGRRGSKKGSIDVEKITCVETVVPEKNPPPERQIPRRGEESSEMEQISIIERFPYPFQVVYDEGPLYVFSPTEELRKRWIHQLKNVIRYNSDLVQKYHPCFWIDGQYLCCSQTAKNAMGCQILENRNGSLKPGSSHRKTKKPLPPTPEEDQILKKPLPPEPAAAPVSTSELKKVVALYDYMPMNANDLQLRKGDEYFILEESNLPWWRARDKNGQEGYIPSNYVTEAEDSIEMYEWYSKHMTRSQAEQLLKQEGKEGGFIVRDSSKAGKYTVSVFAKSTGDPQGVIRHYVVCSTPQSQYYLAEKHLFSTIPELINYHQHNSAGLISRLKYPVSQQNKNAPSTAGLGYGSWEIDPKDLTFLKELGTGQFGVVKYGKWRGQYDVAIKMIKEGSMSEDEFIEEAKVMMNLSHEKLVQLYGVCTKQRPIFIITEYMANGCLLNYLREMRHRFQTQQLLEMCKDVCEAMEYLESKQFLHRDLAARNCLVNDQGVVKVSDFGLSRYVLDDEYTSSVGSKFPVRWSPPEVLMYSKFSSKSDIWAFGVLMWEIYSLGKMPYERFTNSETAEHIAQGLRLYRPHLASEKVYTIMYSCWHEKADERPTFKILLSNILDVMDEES

C=CC(=O)Nc1ccc(C(=O)Nc2[nH]nc3c2CN(C(=O)N[C@H](CN(C)C)c2ccccc2)C3(C)C)cc1
% of engagement [1]: -0.8%

COc1cc(N(C)c2ccnc3ccc(C(F)(F)F)cc23)cc(OC)c1OC
% binding [2]: 95% | % binding [3]: 100%

COCC(=O)NC/C=C/c1ccc2ncnc(Nc3ccc(Oc4ccc(C)nc4)c(C)c3)c2c1 [CP-724714]
% of control [4]: 68%

CNCCN1CCC(c2cc(CN(C)C(=O)c3cccc(Oc4ccccc4)c3)ccn2)CC1
% activity [5]: > 90%

Nc1cnc(N2CCc3cc(S(=O)(=O)Nc4c(F)cc(Cl)cc4F)cc(N4CCCC4=O)c32)nc1 [TP-020n]
% of inhibition [6]: -3.82%

Cn1cc(-n2cnc3c(NCc4nc5cc(Cl)c(Cl)cc5[nH]4)nc(N4CCOCC4)nc32)cn1
% of control [7]: 30.2%

O=C(NOC[C@H](O)CO)c1ccc(F)c(F)c1Nc1ccc(I)cc1F
% of control [8]: 100% | % of control [9]: 100%

Cc1cc(CN)cc(C)c1-c1ncn(C)c1-c1cncn1C
dTagg [10]: -0.1 K

Cc1cc([C@@H](C)Nc2ccccc2C(=O)O)c2nc(N3CCOCC3)cc(=O)n2c1 [AZD-6482]
% of control [11]: 100% | % of control [12]: 87% | % of control [13]: 100%

CCc1cccc(CC)c1NC(=O)c1nn(C)c2c1CCc1cnc(Nc3ccc(C(=O)NC4CCN(C)CC4)cc3OC(F)(F)F)nc1-2
IC50 [14]: > 10 µM

COc1cc(C(=O)N2CC[C@@H](O)[C@@H](N)C2)cc2nc(-c3cc4ccccc4n3CC3CC3)n(C)c12
pXC50 [15]: < 4.5 M

N#Cc1cccc(-c2c[nH]c3ncnc(N4CCOCC4)c23)c1
% of control [16]: 78%

CNC(=O)Nc1ccc(-c2nc(N3CC4CCC(C3)O4)c3cnn(C4CCC5(CC4)OCCO5)c3n2)cc1
% of inhibition [17]: -1%

O[C@H]1CC[C@H](Nc2ncc3nc(Nc4c(F)cc(F)cc4F)n([C@H]4CCOC4)c3n2)CC1
% of control [18]: 98%

CC[C@@H]1[C@H](F)C(=O)N[C@@H]1COc1nccc2cc(C(N)=O)c(OC)cc12 [ZIMLOVISERTIB]
% of inhibition [19]: -26.4% | % of inhibition [20]: -14.5%
